# Experimental data: ChEMBL document CHEMBL5647688, “Mitogen-activated protein kinase (MEK/ERK) inhibition sensitizes cancer cells to centromere-associated protein E inhibition” (Int J Cancer, 2013)
# Key:
# Assay type in all cases: functional
# [1] = system: NCI-H2170; assay: Synergistic cytotoxicity against human NCI-H2170 cells assessed as combination index at ED75 measured after 72 hrs in presence of MEK inhibitor GSK1120212 by Cell-titer Glo reagent assay
# [2] = system: CAPAN-1; assay: Synergistic cytotoxicity against human CAPAN-1 cells expressing KRAS mutant assessed as combination index at ED75 measured after 72 hrs in presence of MEK inhibitor GSK1120212 by Cell-titer Glo reagent assay
# [3] = system: A549; assay: Synergistic cytotoxicity against human A549 cells expressing KRAS mutant assessed as combination index at ED 50 measured after 72 hrs in presence of MEK inhibitor GSK1120212 by Cell-titer Glo reagent assay
# [4] = system: SK-N-FI; assay: Synergistic cytotoxicity against human SK-N-FI cells assessed as combination index at ED 75 measured after 72 hrs in presence of SN-38 by Cell-titer Glo reagent assay
# [5] = system: NCI-H1792; assay: Synergistic cytotoxicity against human NCI-H1792 cells expressing KRAS mutant assessed as combination index at ED75 measured after 72 hrs in presence of MEK inhibitor GSK1120212 by Cell-titer Glo reagent assay
# [6] = system: NCI-H2030; assay: Synergistic cytotoxicity against human NCI-H2030 cells expressing KRAS mutant assessed as combination index at ED75 measured after 72 hrs in presence of MEK inhibitor GSK1120212 by Cell-titer Glo reagent assay
# [7] = system: NCI-H2228; assay: Synergistic cytotoxicity against human NCI-H2228 cells assessed as combination index at ED75 measured after 72 hrs in presence of MEK inhibitor GSK1120212 by Cell-titer Glo reagent assay
# [8] = system: MIA PaCa-2; assay: Synergistic cytotoxicity against human MIA PaCa-2 cells expressing KRAS mutant assessed as combination index at ED 50 measured after 72 hrs in presence of MEK inhibitor GSK1120212 by Cell-titer Glo reagent assay
# [9] = system: A549; assay: Synergistic cytotoxicity against human A549 cells expressing KRAS mutant assessed as combination index at ED75 measured after 72 hrs in presence of MEK inhibitor GSK1120212 by Cell-titer Glo reagent assay
# [10] = system: SW-620; assay: Synergistic cytotoxicity against human SW620 cells expressing KRAS mutant assessed as combination index at ED 50 measured after 72 hrs in presence of MEK inhibitor GSK1120212 by Cell-titer Glo reagent assay
# [11] = system: NCI-H460; assay: Synergistic cytotoxicity against human NCI-H460 cells expressing KRAS mutant assessed as combination index at ED75 measured after 72 hrs in presence of MEK inhibitor GSK1120212 by Cell-titer Glo reagent assay
# [12] = system: HPAF-II; assay: Synergistic cytotoxicity against human HPAF-II cells expressing KRAS mutant assessed as combination index at ED75 measured after 72 hrs in presence of MEK inhibitor GSK1120212 by Cell-titer Glo reagent assay
# [13] = system: SW1990; assay: Synergistic cytotoxicity against human SW1990 cells expressing KRAS mutant assessed as combination index at ED75 measured after 72 hrs in presence of MEK inhibitor GSK1120212 by Cell-titer Glo reagent assay
# [14] = system: Calu-6; assay: Synergistic cytotoxicity against human Calu-6 cells expressing KRAS mutant assessed as combination index at ED75 measured after 72 hrs in presence of MEK inhibitor GSK1120212 by Cell-titer Glo reagent assay
# [15] = system: NCI-H1563; assay: Synergistic cytotoxicity against human NCI-H1563 cells assessed as combination index at ED75 measured after 72 hrs in presence of MEK inhibitor GSK1120212 by Cell-titer Glo reagent assay
# [16] = system: SK-N-FI; assay: Synergistic cytotoxicity against human SK-N-FI cells assessed as combination index at ED 75 measured after 72 hrs in presence of sequential treatment of […] inhibitor CI-1040 by Cell-titer Glo reagent assay
# [17] = system: NCI-H2122; assay: Synergistic cytotoxicity against human NCI-H2122 cells expressing KRAS mutant assessed as combination index at ED 50 measured after 72 hrs in presence of MEK inhibitor GSK1120212 by Cell-titer Glo reagent assay
# [18] = system: SW-620; assay: Synergistic cytotoxicity against human SW620 cells expressing KRAS mutant assessed as combination index at ED75 measured after 72 hrs in presence of MEK inhibitor GSK1120212 by Cell-titer Glo reagent assay
# [19] = system: HuP-T4; assay: Synergistic cytotoxicity against human HuP-T4 cells expressing KRAS mutant assessed as combination index at ED75 measured after 72 hrs in presence of MEK inhibitor GSK1120212 by Cell-titer Glo reagent assay
# [20] = system: NB-1691; assay: Synergistic cytotoxicity against human NB-1691 cells assessed as combination index at ED 75 measured after 72 hrs in presence of temozolomide and SN-38 by Cell-titer Glo reagent assay
# [21] = system: SK-N-FI; assay: Synergistic cytotoxicity against human SK-N-FI cells assessed as combination index at ED 75 measured after 72 hrs in presence of SN-38 and temozolomide by Cell-titer Glo reagent assay
# [22] = system: Capan-2; assay: Synergistic cytotoxicity against human Capan-2 cells expressing KRAS mutant assessed as combination index at ED 50 measured after 72 hrs in presence of MEK inhibitor GSK1120212 by Cell-titer Glo reagent assay
# [23] = system: Capan-2; assay: Synergistic cytotoxicity against human Capan-2 cells expressing KRAS mutant assessed as combination index at ED75 measured after 72 hrs in presence of MEK inhibitor GSK1120212 by Cell-titer Glo reagent assay
# [24] = system: MIA PaCa-2; assay: Synergistic cytotoxicity against human MIA PaCa-2 cells expressing KRAS mutant assessed as combination index at ED75 measured after 72 hrs in presence of MEK inhibitor GSK1120212 by Cell-titer Glo reagent assay
# [25] = system: NCI-H1299; assay: Synergistic cytotoxicity against human NCI-H1299 cells expressing NRAS mutant assessed as combination index at ED 50 measured after 72 hrs in presence of MEK inhibitor GSK1120212 by Cell-titer Glo reagent assay
# [26] = system: HCT-116; assay: Synergistic cytotoxicity against human HCT-116 cells expressing KRAS mutant assessed as combination index at ED 50 measured after 72 hrs in presence of MEK inhibitor GSK1120212 by Cell-titer Glo reagent assay
# [27] = system: SW48; assay: Synergistic cytotoxicity against human SW48 cells assessed as combination index at ED 50 measured after 72 hrs in presence of MEK inhibitor GSK1120212 by Cell-titer Glo reagent assay
# [28] = system: NCI-H520; assay: Synergistic cytotoxicity against human NCI-H520 cells assessed as combination index at ED 50 measured after 72 hrs in presence of MEK inhibitor GSK1120212 by Cell-titer Glo reagent assay
# [29] = system: YAPC; assay: Synergistic cytotoxicity against human […] cells expressing KRAS mutant assessed as combination index at ED75 measured after 72 hrs in presence of MEK inhibitor GSK1120212 by Cell-titer Glo reagent assay
compound,measurement,setting,value
CC(C)Oc1ccc(C(=O)N[C@H](CNC(=O)CN(C)C)Cc2ccc(-c3cn4cccc([C@H](C)O)c4n3)cc2)cc1Cl [GSK-923295A],CI,[1],0.624
same,CI,[2],0.091
same,CI,[3],0.614
same,CI,[4],1.754
same,CI,[5],0.482
same,CI,[6],2.329
same,CI,[7],0.404
same,CI,[8],0.394
same,CI,[9],0.402
same,CI,[10],0.521
same,CI,[11],0.294
same,CI,[12],0.473
same,CI,[13],0.103
same,CI,[14],0.533
same,CI,[15],0.243
same,CI,[16],0.757
same,CI,[17],0.85
same,CI,[18],0.289
same,CI,[19],0.892
same,CI,[20],0.3
same,CI,[21],1.058
same,CI,[22],0.298
same,CI,[23],0.153
same,CI,[24],0.311
same,CI,[25],0.382
same,CI,[26],0.695
same,CI,[27],0.36
same,CI,[28],0.842
same,CI,[29],1.31
